# Data from US12157741B2, “Macrocyclic inhibitors of DYRK1A” (DANA-FARBER CANCER INSTITUTE, INC., priority 2018, dated 2024).
# Where two headings read alike, the source gives them in different places.
# Legend:
# Format in all cases: binding
# various enzymes [1] = target: various enzymes (Homo sapiens, UniProt Q9HBY8); conditions: compound 1 uM
# Description: (§1) Ambit profiling was conducted in accordance with the manufacturer's instructions.
# various enzymes [2] = target: various enzymes (Homo sapiens, UniProt P21127); conditions: compound 1 uM
# Description: as §1
# various enzymes [3] = target: various enzymes (Homo sapiens, UniProt P57058); conditions: compound 1 uM
# various enzymes (Homo sapiens, UniProt P57058), sequence (P57058 whole entry): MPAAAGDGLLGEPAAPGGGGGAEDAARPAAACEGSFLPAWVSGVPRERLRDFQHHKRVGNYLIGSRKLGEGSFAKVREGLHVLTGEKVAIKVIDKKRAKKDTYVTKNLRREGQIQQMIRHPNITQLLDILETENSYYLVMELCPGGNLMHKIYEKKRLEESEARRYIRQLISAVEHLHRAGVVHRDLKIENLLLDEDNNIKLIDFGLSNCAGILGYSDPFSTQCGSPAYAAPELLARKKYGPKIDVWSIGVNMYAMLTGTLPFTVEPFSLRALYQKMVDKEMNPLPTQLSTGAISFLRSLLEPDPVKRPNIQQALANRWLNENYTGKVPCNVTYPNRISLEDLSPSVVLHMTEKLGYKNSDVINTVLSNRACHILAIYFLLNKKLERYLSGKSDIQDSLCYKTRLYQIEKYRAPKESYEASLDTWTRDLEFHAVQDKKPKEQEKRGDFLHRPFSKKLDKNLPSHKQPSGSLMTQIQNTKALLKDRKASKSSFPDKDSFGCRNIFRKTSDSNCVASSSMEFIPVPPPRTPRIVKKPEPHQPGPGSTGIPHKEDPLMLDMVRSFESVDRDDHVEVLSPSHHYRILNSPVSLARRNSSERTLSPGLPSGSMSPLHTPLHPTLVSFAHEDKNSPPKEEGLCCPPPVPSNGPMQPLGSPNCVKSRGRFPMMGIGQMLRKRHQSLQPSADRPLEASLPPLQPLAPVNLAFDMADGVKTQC
# Description: as §1
# various enzymes [4] = target: various enzymes (Homo sapiens, UniProt Q14012); conditions: compound 1 uM
# Description: as §1
# various enzymes [5] = target: T1, various enzymes (Homo sapiens, UniProt O60285); conditions: compound 1 uM
# T1 sequence (O60285 1-661): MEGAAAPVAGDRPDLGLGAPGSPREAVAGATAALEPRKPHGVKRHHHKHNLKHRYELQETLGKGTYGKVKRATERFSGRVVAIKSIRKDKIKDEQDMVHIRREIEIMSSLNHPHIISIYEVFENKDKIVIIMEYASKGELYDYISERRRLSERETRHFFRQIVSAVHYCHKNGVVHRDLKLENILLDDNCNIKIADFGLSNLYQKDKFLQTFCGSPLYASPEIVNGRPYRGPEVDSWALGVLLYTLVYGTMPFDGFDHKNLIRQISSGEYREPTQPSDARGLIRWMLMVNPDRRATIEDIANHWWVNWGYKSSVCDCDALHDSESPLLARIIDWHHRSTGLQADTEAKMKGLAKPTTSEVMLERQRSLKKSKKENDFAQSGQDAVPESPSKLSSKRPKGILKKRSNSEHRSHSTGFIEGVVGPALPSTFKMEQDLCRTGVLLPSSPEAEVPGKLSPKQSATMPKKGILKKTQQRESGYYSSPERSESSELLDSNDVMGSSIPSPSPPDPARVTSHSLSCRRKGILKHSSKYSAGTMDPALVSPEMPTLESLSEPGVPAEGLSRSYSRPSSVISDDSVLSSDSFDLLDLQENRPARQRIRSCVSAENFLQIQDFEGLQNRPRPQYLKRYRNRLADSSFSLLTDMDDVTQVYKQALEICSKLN
# Description: as §1
# various enzymes [6] = target: T2, various enzymes (Homo sapiens, UniProt Q12852); conditions: compound 1 uM
# T2 sequence (Q12852 1-859): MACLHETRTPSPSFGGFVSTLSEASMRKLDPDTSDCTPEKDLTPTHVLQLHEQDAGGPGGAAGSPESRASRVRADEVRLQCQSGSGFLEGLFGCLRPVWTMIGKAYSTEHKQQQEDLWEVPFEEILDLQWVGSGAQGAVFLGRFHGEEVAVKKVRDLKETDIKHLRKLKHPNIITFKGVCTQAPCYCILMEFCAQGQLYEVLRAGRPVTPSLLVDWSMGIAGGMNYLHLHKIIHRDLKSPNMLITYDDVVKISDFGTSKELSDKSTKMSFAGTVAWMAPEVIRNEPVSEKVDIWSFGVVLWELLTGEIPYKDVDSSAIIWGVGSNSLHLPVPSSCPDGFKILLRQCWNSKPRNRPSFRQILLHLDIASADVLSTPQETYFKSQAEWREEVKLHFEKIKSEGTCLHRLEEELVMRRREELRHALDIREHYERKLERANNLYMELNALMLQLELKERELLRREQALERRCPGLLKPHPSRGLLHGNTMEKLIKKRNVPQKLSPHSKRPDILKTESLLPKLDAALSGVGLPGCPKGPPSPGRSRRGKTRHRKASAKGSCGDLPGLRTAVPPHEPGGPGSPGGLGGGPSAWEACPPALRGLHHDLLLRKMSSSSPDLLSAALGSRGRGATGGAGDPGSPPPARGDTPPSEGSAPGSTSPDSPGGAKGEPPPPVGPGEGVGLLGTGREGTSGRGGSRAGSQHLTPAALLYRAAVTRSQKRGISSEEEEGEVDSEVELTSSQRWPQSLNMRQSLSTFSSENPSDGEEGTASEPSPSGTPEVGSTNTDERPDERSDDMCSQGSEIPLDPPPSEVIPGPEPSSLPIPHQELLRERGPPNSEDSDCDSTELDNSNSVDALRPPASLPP
# Description: as §1
# various enzymes [7] = target: various enzymes (Homo sapiens, UniProt P00519, F317I); conditions: compound 1 uM
# various enzymes (Homo sapiens, UniProt P00519, F317I), sequence (P00519 whole entry F317I): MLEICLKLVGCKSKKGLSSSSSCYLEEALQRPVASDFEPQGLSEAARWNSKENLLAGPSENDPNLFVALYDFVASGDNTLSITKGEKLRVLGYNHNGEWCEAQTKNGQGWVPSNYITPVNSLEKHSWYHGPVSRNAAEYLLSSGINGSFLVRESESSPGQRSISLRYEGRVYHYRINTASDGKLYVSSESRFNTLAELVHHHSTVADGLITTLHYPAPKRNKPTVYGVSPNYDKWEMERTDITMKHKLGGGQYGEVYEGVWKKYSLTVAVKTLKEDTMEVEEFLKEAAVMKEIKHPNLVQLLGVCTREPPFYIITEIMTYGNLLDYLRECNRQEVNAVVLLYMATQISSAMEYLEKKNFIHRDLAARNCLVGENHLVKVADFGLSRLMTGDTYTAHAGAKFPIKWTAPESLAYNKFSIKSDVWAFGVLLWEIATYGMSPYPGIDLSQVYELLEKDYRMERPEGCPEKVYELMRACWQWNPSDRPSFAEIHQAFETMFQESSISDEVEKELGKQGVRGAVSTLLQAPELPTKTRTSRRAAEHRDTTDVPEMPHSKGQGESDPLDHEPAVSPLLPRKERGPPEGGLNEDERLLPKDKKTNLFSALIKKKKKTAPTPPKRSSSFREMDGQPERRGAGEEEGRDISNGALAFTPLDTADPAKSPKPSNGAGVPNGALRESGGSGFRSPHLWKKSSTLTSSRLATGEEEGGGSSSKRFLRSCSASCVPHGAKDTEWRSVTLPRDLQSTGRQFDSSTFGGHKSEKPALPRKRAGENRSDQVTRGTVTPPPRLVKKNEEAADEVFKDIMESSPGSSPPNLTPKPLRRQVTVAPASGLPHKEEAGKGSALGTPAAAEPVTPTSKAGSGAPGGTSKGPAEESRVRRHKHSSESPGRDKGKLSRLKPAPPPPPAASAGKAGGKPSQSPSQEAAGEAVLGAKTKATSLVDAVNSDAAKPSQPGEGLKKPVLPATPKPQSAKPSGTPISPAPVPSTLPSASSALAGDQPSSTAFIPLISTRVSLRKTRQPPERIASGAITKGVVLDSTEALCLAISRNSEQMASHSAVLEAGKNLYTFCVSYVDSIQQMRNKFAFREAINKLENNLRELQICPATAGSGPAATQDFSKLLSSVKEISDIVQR
# Description: as §1
# various enzymes [8] = target: various enzymes (Homo sapiens, UniProt Q9UQM7); conditions: compound 1 uM
# Description: as §1
# various enzymes [9] = target: various enzymes (Homo sapiens, UniProt P80192); conditions: compound 1 uM
# Description: as §1
# various enzymes [10] = target: various enzymes (Homo sapiens, UniProt Q5S007, G2019S)
# Description: as §1
# various enzymes [11] = target: various enzymes (Homo sapiens, UniProt P27361); conditions: compound 1 uM
# Description: as §1
# various enzymes [12] = target: various enzymes (Homo sapiens, UniProt Q12866); conditions: compound 1 uM
# Description: as §1
# various enzymes [13] = target: various enzymes (Homo sapiens, UniProt P35626); conditions: compound 1 uM
# Description: as §1
# various enzymes [14] = target: various enzymes (Homo sapiens, UniProt P29376); conditions: compound 1 uM
# Description: as §1
# various enzymes [15] = target: various enzymes (Homo sapiens, UniProt Q02156); conditions: compound 1 uM
# Description: as §1
# various enzymes [16] = target: various enzymes (Homo sapiens, UniProt Q9NRH2); conditions: compound 1 uM
# Description: as §1
# various enzymes [17] = target: various enzymes (Homo sapiens, UniProt P51617); conditions: compound 1 uM
# Description: as §1
# various enzymes [18] = target: various enzymes (Homo sapiens, UniProt P51955); conditions: compound 1 uM
# Description: as §1
# various enzymes [19] = target: various enzymes (Homo sapiens, UniProt P42681); conditions: compound 1 uM
# various enzymes (Homo sapiens, UniProt P42681), sequence (P42681 whole entry): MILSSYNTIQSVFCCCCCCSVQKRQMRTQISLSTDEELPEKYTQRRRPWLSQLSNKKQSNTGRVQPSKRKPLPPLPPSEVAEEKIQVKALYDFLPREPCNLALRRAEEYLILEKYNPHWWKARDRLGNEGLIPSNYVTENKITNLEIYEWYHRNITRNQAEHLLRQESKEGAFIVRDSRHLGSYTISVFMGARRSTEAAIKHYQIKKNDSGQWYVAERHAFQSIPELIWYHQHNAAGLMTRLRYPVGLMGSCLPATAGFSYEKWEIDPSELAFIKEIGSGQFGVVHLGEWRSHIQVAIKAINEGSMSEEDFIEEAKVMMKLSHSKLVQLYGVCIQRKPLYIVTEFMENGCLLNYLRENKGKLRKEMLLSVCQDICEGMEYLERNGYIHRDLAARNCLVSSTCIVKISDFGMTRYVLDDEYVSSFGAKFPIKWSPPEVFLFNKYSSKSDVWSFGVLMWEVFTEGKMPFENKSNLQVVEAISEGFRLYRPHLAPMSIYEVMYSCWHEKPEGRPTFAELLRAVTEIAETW
# Description: as §1
# various enzymes [20] = target: various enzymes (Homo sapiens, UniProt Q04759); conditions: compound 1 uM
# Description: as §1
# various enzymes [21] = target: various enzymes (Homo sapiens, UniProt P45983); conditions: compound 1 uM
# various enzymes (Homo sapiens, UniProt P45983), sequence (P45983 whole entry): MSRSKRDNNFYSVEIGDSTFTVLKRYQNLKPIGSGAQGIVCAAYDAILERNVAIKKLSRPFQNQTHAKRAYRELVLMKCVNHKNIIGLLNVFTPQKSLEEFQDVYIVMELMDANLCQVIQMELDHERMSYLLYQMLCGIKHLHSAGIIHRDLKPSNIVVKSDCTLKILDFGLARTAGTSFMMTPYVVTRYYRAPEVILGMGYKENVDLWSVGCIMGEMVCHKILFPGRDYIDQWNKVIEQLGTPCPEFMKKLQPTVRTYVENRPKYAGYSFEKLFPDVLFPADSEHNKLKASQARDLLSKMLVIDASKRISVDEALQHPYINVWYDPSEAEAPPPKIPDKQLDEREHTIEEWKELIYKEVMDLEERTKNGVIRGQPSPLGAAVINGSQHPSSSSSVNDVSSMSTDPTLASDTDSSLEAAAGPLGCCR
# Description: as §1
# various enzymes [22] = target: various enzymes (Homo sapiens, UniProt Q8IY84); conditions: compound 1 uM
# Description: as §1
# various enzymes [23] = target: various enzymes (Homo sapiens, UniProt Q9Y2K2); conditions: compound 1 uM
# various enzymes (Homo sapiens, UniProt Q9Y2K2), sequence (Q9Y2K2 whole entry): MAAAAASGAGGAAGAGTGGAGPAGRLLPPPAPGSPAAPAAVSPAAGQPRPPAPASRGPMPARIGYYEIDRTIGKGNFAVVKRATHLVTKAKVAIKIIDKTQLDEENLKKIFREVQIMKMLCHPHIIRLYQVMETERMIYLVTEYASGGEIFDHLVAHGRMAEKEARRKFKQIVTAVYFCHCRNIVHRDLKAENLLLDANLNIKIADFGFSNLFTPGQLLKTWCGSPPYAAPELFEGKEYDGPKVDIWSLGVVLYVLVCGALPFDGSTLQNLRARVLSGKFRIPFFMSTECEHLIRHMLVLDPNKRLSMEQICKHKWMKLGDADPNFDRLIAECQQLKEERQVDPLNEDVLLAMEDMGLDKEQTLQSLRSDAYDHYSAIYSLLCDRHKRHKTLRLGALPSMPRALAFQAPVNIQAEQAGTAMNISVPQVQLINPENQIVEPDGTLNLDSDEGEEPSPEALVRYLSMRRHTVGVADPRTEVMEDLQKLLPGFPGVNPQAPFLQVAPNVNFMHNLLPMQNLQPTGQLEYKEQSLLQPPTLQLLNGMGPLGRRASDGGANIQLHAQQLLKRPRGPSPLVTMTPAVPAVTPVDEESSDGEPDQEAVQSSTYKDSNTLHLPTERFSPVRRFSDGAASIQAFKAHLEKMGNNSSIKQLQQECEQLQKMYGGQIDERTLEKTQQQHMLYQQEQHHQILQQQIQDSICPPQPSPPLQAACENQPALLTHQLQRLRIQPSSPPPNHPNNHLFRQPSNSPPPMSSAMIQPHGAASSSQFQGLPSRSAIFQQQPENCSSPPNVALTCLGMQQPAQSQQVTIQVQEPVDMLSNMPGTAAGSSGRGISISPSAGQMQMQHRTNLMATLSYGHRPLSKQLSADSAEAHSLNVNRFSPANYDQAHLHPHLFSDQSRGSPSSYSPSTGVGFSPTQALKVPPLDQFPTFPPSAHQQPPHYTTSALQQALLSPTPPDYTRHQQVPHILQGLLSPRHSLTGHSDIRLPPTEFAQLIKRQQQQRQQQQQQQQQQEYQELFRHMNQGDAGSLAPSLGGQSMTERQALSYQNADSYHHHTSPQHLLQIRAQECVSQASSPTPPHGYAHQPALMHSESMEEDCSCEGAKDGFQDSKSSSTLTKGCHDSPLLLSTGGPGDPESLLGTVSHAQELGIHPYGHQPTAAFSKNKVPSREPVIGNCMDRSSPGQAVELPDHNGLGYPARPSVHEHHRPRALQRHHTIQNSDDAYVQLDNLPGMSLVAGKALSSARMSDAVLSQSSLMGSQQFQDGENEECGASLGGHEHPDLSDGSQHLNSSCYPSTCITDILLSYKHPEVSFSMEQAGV
# Description: as §1
# various enzymes [24] = target: various enzymes (Homo sapiens, UniProt Q13188); conditions: compound 1 uM
# various enzymes (Homo sapiens, UniProt Q13188), sequence (Q13188 whole entry): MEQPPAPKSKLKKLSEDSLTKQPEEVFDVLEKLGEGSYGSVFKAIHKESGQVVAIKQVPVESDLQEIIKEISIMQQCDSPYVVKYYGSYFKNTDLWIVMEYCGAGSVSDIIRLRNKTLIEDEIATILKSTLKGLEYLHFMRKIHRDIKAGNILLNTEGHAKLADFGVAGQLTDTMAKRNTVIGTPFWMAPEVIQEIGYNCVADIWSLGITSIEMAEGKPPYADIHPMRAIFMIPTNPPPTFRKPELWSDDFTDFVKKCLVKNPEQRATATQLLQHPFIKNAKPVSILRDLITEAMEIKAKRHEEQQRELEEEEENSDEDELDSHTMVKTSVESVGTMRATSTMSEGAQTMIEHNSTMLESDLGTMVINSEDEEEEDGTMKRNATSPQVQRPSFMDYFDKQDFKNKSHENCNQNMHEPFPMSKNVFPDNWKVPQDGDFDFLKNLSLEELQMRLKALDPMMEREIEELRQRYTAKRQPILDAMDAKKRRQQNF
# Description: as §1
# various enzymes (Homo sapiens, UniProt Q9HBY8), sequence (Q9HBY8 whole entry): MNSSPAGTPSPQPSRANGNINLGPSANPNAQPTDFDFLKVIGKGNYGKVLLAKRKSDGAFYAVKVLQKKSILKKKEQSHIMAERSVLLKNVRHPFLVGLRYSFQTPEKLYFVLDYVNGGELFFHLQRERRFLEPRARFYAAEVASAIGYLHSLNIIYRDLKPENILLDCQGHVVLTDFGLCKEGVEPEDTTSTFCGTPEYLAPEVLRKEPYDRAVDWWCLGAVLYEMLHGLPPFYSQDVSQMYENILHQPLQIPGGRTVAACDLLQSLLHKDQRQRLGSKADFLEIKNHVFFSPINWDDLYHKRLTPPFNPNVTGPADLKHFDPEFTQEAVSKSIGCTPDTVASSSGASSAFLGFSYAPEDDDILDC
Compound,Ambit profiling: SGK2 (various enzymes [1]),Ambit profiling: CDC2L1 (various enzymes [2]),Ambit profiling: HUNK (various enzymes [3]),Ambit profiling: CAMK1 (various enzymes [4]),Ambit profiling: ARK5 (various enzymes [5]),Ambit profiling: DLK (various enzymes [6]),Ambit profiling: ABL1(F317I)-nonphosphorylated (various enzymes [7]),Ambit profiling: ABL1(F317I)-phosphorylated (various enzymes [7]),Ambit profiling: CAMK2A (various enzymes [8]),Ambit profiling: MLK1 (various enzymes [9]),Ambit profiling: ERK1 (various enzymes [11]),Ambit profiling: MERTK (various enzymes [12]),Ambit profiling: GRK3 (various enzymes [13]),Ambit profiling: LTK (various enzymes [14]),Ambit profiling: PRKCE (various enzymes [15]),Ambit profiling: SNRK (various enzymes [16]),Ambit profiling: IRAK1 (various enzymes [17]),Ambit profiling: NEK2 (various enzymes [18]),Ambit profiling: TXK (various enzymes [19]),Ambit profiling: PRKCQ (various enzymes [20]),other results
"CC(C)N1Cc2nn(C)cc2-c2cnc3[nH]cc(c3c2)-c2cn(nc2C(F)(F)F)CCCC1=O [Compound 45, (Z)-5-isopropyl-31-methyl-13-(trifluoromethyl)-11H,21H,31H-5-aza-2(3,5)-pyrrolo[2,3-b]pyridina-1(4,1),3(4,3)-dipyrazolacyclononaphan-6-one]",23,100,16,91,100,32,87,71,7.7,46,100,0.6,100,18,90,100,1.4,49,15,27,Ambit profiling: LRRK2(G2019S) (various enzymes [10]; compound 1 uM): 53; Ambit profiling: JNK1 (various enzymes [21]): 18; Ambit profiling: NIM1 (various enzymes [22]): 100; Ambit profiling: QSK (various enzymes [23]): 32; Ambit profiling: MST2 (various enzymes [24]): 0
"COc1c2c(nn1C)CN(C(C)C)C(=O)CCCn1cc(c(C(F)(F)F)n1)-c1c[nH]c3ncc-2cc13 [Compound 50, (Z)-5-isopropyl-35-methoxy-31-methyl-13-(trifluoromethyl)-11H,21H,31H-5-aza-2(3,5)-pyrrolo[2,3-b]pyridina-1(4,1),3(4,3)-dipyrazolacyclononaphan-6-one]",59,73,8,53,100,25,56,19,12,28,95,3.5,85,8.7,30,86,2.1,68,3.2,13,Ambit profiling: LRRK2(G2019S) (various enzymes [10]): 27; Ambit profiling: JNK1 (various enzymes [21]): 4.1; Ambit profiling: NIM1 (various enzymes [22]): 100; Ambit profiling: QSK (various enzymes [23]): 73; Ambit profiling: MST2 (various enzymes [24]): 3.1
